Data as given in patent US12564584B2, “Amorphous cabozantinib particles and uses thereof” (Flex Pharma, LLC, priority 2020, dated 2026).

Tests used:
[1] = Water content by Karl Fischer coulometric titration; format: physicochemical; settings: after preparation
Method: Water content was determined by Karl Fischer coulometric titration method, using a Mettler Toledo C30S Karl Fischer with Stromboli Oven Sampler. Approximately 40-50 mg of ASD powder was weighed into a glass Stromboli sample vial and the vial was immediately sealed with a foil coated vial cover, and a rubber vial cap cover was placed on top of the sample vial. The vial was then placed onto instrument and analysis was conducted using nitrogen carrier gas. Instrument details and measurement conditions are specified in Table 4.

[2] = test system: MET, VEGFR-1, -2 and -3, AXL, RET, ROS1, TYRO3, MER, KIT, TRKB, FLT-3, and TIE-2; settings: FLT-3, TIE-2; cited from earlier work
[3] = Assay by HPLC (corrected for water content); format: physicochemical
Method: (§1) Total related substances was determined by HPLC using a Waters Acquity H-Class UPLC instrument utilizing a Waters Acquity BEH C18, 2.1×50 mm, 1.7 μm column. Sample solutions of each ASD were prepared by accurately weighing ASD powder into a volumetric flask, and diluted in 1:1:1 methanol:ethanol:water. The final concentration of the analyte (cabozantinib) in the sample was approximately 0.2 mg/ml.
(§2) Assay values and total related substances were determined for the ASDs after preparation (t=0) and at the designated stability timepoints using an appropriate HPLC method (as described in Example 1). The reported assay values have been corrected for water content (determined by Karl Fischer coulometric titration method).

[4] = Total related substances by HPLC; format: physicochemical
Method: as §1
Individual related substances were calculated as peak area percent. Total related substances is calculated as the sum of all detected individual related substances.
as §2

[5] = cited from earlier work
[6] = cited from earlier work; remark: listed apart in the source

Structure (SMILES) | Water Content (% water) [1] [% water] | inhibition of tyrosine kinase activity [2] | Assay ([3]; 40° C./protected, 1 month) [%] | Assay ([3]; 40° C./protected, 2 months) [%] | Assay ([3]; 40° C./protected, 3 months) [%] | Assay ([3]; t = 0) [%] | Total Related Substances ([4]; 40° C./protected, 1 month) [%] | Total Related Substances ([4]; 40° C./protected, 2 months) [%] | Total Related Substances ([4]; 40° C./protected, 3 months) [%] | Total Related Substances (% Area) ([4]; after preparation) | Total Related Substances ([4]; t = 0) [%] | protein bound in human plasma [5] [%] | solubility in aqueous media [6]
COc1cc2nccc(Oc3ccc(NC(=O)C4(C(=O)Nc5ccc(F)cc5)CC4)cc3)c2cc1OC.O=C(O)C[C@H](O)C(=O)O [Cabozantinib (free base), N-(4-(6,7-dimethoxyquinolin-4-yloxy)phenyl)-N′-(4-fluorophenyl)cyclopropane-1,1-dicarboxamide, (2S)-hydroxybutanedioate] | 0.75 | inhibits | 99.9 | 99.6 | 99.0 | 99.2 | 0.52 | 0.44 | 0.38 | 0.44 | 0.44 | ≥ 99.7 | –
COc1cc2nccc(Oc3ccc(NC(=O)C4(C(=O)Nc5ccc(F)cc5)CC4)cc3)c2cc1OC.O=C(O)C[C@H](O)C(=O)O [Cabozantinib (S)-malate salt] | – | – | – | – | – | – | – | – | – | – | – | – | practically insoluble
